US20240351996A1, “CDK19-SELECTIVE INHIBITORS, AND METHODS OF USE THEREOF” (CZ BIOHUB SF, LLC, priority 2022, published 2024)

Tests used:
CDK19/CycC = CDK19/CycC (Homo sapiens, UniProt Q9BWU1); experiment: LanthaScreen europium kinase binding assay (FRET displacement), CDK19; conditions: for CDK19 Selectivity: CDK19/CDK8 selectivity based on IC50 values; for IC50: his-tagged CDK19/CycC 5 nM, tracer 10 nM, 3 h incubation
Procedure: (§1) FRET Displacement Assay to Measure IC50: The CDK19/CDK8 IC50 values were measured to evaluate activity and to determine CDK19/CDK8 selectivity. The IC50 values of the disclosed compounds was measured using a LanthaScreen™ europium kinase binding assay (ThermoFisher), as described herein.
To a kinase buffer cocktail solution (i.e., 5× Kinase Buffer A) was added: purified recombinant his-tagged CDK19/CycC protein (5 nM), ATP-competitive kinase inhibitor scaffold kinase tracer Alexa Fluor® 665 (10 nM), biotin anti-his tag antibody (2 nM), LanthaScreen® europium-streptavidin (2 nM). An aliquot of the cocktail solution (10 μL) was added to each well of a LUMITRAC™ 200:384 flat bottom, non-treated microtiter white plate. The plate was then covered to protect light sensitive reagents and incubated for 30 min at room temperature to equilibrate before addition of any inhibitors.
(§2) A serial dilution of the compounds was titrated into each well using an automated liquid handling Staccato integrated system at the following concentration(s) (Log10 Molar [C]): −4.5, −5.0, −5.5, −6.0, −6.5, −7.0, −7.5, −8.0 so that a complete dose-response could be calculated. A Tecan microplate reader infinite m200 instrument was then used to measure the FRET signal of each individual well using an excitation of 317/20 nm, emission europium of 620/12 nm, and emission kinase tracer of 665/12 nm after a 3 h incubation period at room temperature until steady-state kinetics were achieved.
(§3) Results were performed in duplicate and were repeated a total of 3 independent times before data was normalized to the DMSO control group and IC50 values reported.

CDK8 = CDK8 (Homo sapiens, UniProt P49336); experiment: LanthaScreen europium kinase binding assay (FRET displacement), CDK8
Procedure: as §1
[…] An aliquot of the cocktail solution (10 μL) was added to each well of a LUMITRAC™ 200:384 flat bottom, non-treated microtiter white plate. The plate was then covered to protect light sensitive reagents and incubated for 30 min at room temperature to equilibrate before addition of any inhibitors.
as §2, §3

Sequence of CDK19/CycC (Q9BWU1 whole entry): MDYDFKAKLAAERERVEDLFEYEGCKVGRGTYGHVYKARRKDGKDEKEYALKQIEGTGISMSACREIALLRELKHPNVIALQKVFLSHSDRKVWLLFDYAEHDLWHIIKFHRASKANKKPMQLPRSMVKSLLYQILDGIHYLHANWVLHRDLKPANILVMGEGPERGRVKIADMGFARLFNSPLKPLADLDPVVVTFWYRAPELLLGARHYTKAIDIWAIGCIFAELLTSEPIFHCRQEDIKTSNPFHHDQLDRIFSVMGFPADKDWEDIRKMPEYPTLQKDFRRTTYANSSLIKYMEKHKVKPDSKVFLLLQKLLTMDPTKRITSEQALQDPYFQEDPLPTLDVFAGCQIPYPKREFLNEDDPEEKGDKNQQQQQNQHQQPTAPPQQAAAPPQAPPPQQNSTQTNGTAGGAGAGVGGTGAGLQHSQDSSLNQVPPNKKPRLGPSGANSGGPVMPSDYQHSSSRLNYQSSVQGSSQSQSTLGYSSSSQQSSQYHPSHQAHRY
Sequence of CDK19/CycC (P24863 whole entry partner): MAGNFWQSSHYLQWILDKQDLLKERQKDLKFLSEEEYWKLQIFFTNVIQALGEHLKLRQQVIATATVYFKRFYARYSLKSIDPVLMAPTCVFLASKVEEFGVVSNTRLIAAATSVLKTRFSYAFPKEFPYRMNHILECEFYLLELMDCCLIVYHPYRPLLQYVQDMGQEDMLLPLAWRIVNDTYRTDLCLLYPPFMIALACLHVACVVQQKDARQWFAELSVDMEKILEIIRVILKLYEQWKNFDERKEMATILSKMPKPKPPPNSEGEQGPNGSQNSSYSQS
Sequence of CDK8 (P49336 whole entry): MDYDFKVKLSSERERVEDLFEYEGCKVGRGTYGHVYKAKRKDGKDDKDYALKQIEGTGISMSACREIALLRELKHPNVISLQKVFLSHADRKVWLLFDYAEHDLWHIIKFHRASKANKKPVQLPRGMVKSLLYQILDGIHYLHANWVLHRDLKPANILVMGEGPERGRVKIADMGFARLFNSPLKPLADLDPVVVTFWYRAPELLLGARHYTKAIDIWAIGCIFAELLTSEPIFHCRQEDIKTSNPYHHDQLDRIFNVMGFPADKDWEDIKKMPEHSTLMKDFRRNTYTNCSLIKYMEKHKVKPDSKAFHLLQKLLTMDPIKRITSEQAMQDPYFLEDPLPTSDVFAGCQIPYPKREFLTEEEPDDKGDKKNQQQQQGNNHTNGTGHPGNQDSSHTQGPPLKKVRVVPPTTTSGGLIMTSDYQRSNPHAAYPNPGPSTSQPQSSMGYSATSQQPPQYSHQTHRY
Sequence of CDK8 (P24863 whole entry partner): as the sequence (P24863 whole entry partner) above

| SMILES | CDK19 Selectivity (CDK19/CycC) | IC50 (CDK19/CycC) [nM] | IC50 (CDK8) [nM] |
| --- | --- | --- | --- |
| Fc1ccc(Nc2ncc(Oc3ccncc3)cn2)cc1 [Compound A142] | 1 | 10000 | 10000 |
| CC(C)Cc1ccc(Nc2ncc(Oc3ccncc3)cn2)cc1 [Compound A143] | 3 | 3000 | 10000 |
| FC(F)(F)Oc1ccc(Nc2ncc(Nc3ccncc3)cn2)cc1 [Compound A145] | 2 | 36 | 72 |
| CC(C)Cc1ccc(Nc2ncc(Nc3ccncc3C(=O)NC3CCCC3)cn2)cc1 [Compound A146] | 1 | 219 | 178 |
| Cc1cnccc1Nc1cnc(Nc2ccc(C3CCC3)cc2)nc1 [Compound A147] | 1 | 13 | 15 |
| Cc1cnccc1Nc1cnc(Nc2ccc(C3CCCCC3)cc2)nc1 [Compound A148] | 1 | 18 | 17 |
| CC(C)Cc1ccc(Nc2ncc(Nc3ccncc3C#N)cn2)cc1 [Compound A149] | – | ≤ 2.5 | 3 |
| Cc1cnc(F)cc1Nc1cnc(Nc2ccc(CC(C)C)cc2)nc1 [Compound A150] | 2 | 23 | 50 |
| CC(C)Cc1ccc(Nc2ncc(S(=O)(=O)c3ccncc3)cn2)cc1 [Compound A152] | – | 1060 | 4630 |
| CC(C)Cc1ccc(Nc2ncc(Nc3ccc4c(c3)CNC4=O)cn2)cc1 [Compound A153] | – | 266 | 605 |
| CC(C)Cc1ccc(Nc2ncc(Nc3ccncc3C(F)(F)F)cn2)cc1 [Compound A154] | 1 | 3 | 3 |
| CC(C)Cc1ccc(Nc2ncc(-c3cccc(-c4ccncc4)c3)cn2)cc1 [Compound A155] | 3 | 6 | 19 |
| CC(C)Cc1ccc(Nc2ncc(Nc3ccncc3C#Cc3ccccc3)cn2)cc1 [Compound A156] | 5 | 54 | 248 |
| CC(C)Cc1ccc(Nc2ncc(Nc3ccncc3OC3CCCC3(C)C)cn2)cc1 (centres unmarked) [Compound A157] | 1 | 67 | 64 |
| CC(C)Cc1ccc(Nc2ncc(Nc3ccncc3-c3cnn(C4CC4)c3)cn2)cc1 [Compound A158] | – | 24 | 16 |
| CC(C)Cc1ccc(Nc2ncc(Nc3ccnc(N)c3)cn2)cc1 [Compound A159] | 3 | 18 | 54 |
| Cc1cnccc1Nc1cnc(Nc2ccc(OC(C)C)cc2)nc1 [Compound A160] | 3 | 33 | 95 |
| CC(C)Cc1ccc(Nc2ncc(C(F)(F)c3ccncc3)cn2)cc1 [Compound A161] | 2 | 9 | 20 |
| Cc1cnccc1Nc1cnc(Nc2ccc(OC(C)C)cc2F)nc1 [Compound A162] | 4 | 89 | 362 |

| SMILES | CDK19 Selectivity (CDK19/CycC) | IC50 (CDK19/CycC) [nM] | IC50 (CDK8) [nM] |
| --- | --- | --- | --- |
| CC(C)Cc1ccc(Nc2ncc(Nc3ccncc3NC3CCCC3)cn2)cc1 [Compound A163] | 1 | 76 | 75 |
| CC(C)Cc1ccc(Nc2ncc(Nc3ccncc3C3CC3)cn2)cc1 [Compound A164] | 3 | 75 | 226 |
| Cc1cnccc1Nc1cnc(Nc2ccc(CC(C)C)cc2C)nc1 [Compound A165] | 4 | 57 | 238 |
| Cc1nc(Nc2ccc(CC(C)C)cc2)ncc1Nc1ccncc1C(F)(F)F [Compound A166] | 1 | 5 | 5 |
| CC(C)Cc1ccc(Nc2ncc(C(C)(O)c3ccncc3)cn2)cc1 (centres unmarked) [Compound A167] | 4 | 154 | 614 |
| CC(C)Cc1ccc(Nc2ncc(C3(c4ccncc4)CC3)cn2)cc1 [Compound A169] | 3 | 20 | 62 |
| CC(C)Cc1ccc(Nc2ncc(C(=O)c3ccncc3OC3CCCC3)cn2)cc1 [Compound A170] | 2 | 4 | 7 |
| COc1cc(CC(C)C)ccc1Nc1ncc(C(=O)c2ccncc2OC2CCCC2)cn1 [Compound A171] | 2 | 16 | 25 |
| Cc1cc(CC(C)C)ccc1Nc1ncc(C(=O)c2ccncc2OC2CCCC2)cn1 [Compound A172] | 2 | 5 | 11 |
| CC(C)Cc1ccc(Nc2ncc(Nc3ccnc(C4CC4)c3)cn2)cc1 [Compound A173] | 5 | 52 | 244 |
| Cc1cc(Nc2cnc(Nc3ccc(CC(C)C)cc3)nc2)c(F)cn1 [Compound A174] | 4 | 7 | 33 |
| CC(C)Cc1ccc(Nc2ncc(Nc3cc(F)ncc3F)cn2)cc1 [Compound A175] | 4 | 36 | 129 |
| CC(C)Cc1ccc(Nc2ncc(C(=O)c3ccncc3OC3CCCC3)cn2)c(F)c1 [Compound A176] | 2 | 7 | 13 |
| CC(C)Oc1ccc(Nc2ncc(Nc3ccncc3C(F)(F)F)cn2)cc1 [Compound A177] | – | ≤ 2.5 | 3 |
| CCOc1ccc(Nc2ncc(Nc3ccncc3C(F)(F)F)cn2)cc1 [Compound A178] | – | ≤ 2.5 | 10 |
| O=C(c1cnc(Nc2ccc(C3CCOCC3)cc2)nc1)c1ccncc1OC1CCCC1 [Compound A179] | ≤1 | ≤ 2.5 | ≤ 2.5 |
| c1cc(Nc2cnc(Nc3ccc(C4CCOCC4)cc3)nc2)c(OC2CCCC2)cn1 [Compound A180] | – | 4 | 6 |
| FC(F)(F)c1cnccc1Nc1cnc(Nc2ccc(C3CCOCC3)cc2)nc1 [Compound A181] | ≤1 | ≤ 2.5 | ≤ 2.5 |
| CC(C)Cc1ccc(Nc2ccc(C(=O)c3cccnc3)cn2)cc1 [Compound A200] | 2 | 1340 | 2380 |
